Test results taken from US20240247080A1, “GLP1/GIP/NPY2 RECEPTOR TRIPLE AGONISTS” (Boehringer Ingelheim International GmbH, priority 2022, published 2024).
pEC50: −log10 of the molar value. Like-named read-outs stand apart in the source and are kept apart here. Starred links: 1 amine or outer side, 2 acyl side, 3 side chain; linkers in the order of their positions; H or OH if unused. Non-standard residues stand in square brackets, D forms with d. Groups on a side chain read outwards from the residue. *: point of attachment. C20 diacid = O=C(O)CCCCCCCCCCCCCCCCCCC(=O)*; C18 diacid = O=C(O)CCCCCCCCCCCCCCCCC(=O)*; γGlu = O=C(O)[C@H](CCC(=O)[*:2])N[*:1]; εLys = N[C@@H](CCCCN[*:1])C(=O)[*:2]; NMeR = CN[C@@H](CCCNC(=N)N)C(=O)O; β3hQ = NC(=O)CC[C@H](N)CC(=O)O; Aib = CC(C)(N)C(=O)O

Tests used:
Assay type in all cases: cell-based
Settings in all cases: CreLuc reporter gene assay
[1] = target: T1, hGLP1R (Homo sapiens, UniProt P43220); test: hGLP1R CreLuc reporter gene assay in 0.5% and 100% plasma
T1 construct: expressed in transfected cells; host or cells: HEK-293 cells carrying a CRE-luciferase reporter gene
Method in brief: (§1)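 HEK cells (GLP-1R, NPY2R) or CHO cells (GIPR) carrying a CRE-luciferase reporter, incubated 4 h at 37 °C with peptides in HBSS/20 mM HEPES pH 7.4 plus 0.5% human plasma, or in 100% plasma. Luminescence read; EC50 from 8-point variable-slope sigmoid fits.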

[2] = target: T2, hNPY2R (Homo sapiens, UniProt P49146); test: hNPY2R CreLuc reporter gene assay in 0.5% and 100% plasma
T2 construct: expressed in transfected cells; host or cells: HEK-293 cells carrying a CRE-luciferase reporter gene
T2 sequence (P49146 1-381): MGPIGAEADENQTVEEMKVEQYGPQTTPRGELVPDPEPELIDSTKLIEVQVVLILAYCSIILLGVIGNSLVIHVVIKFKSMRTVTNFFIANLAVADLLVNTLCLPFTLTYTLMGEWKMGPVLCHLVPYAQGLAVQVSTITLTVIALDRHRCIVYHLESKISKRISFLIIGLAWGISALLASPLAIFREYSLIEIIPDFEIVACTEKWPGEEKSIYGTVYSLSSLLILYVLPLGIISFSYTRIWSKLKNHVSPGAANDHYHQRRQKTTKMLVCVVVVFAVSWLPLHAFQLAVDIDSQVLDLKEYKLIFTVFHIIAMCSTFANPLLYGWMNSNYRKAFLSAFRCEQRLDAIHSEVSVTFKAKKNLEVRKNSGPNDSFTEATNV
Method in brief: as §1

[3] = target: T3, hGIPR (Homo sapiens, UniProt P48546); test: hGIPR CreLuc reporter gene assay in 0.5% and 100% plasma
T3 construct: expressed in transfected cells; host or cells: CHO cells carrying a CRE-luciferase reporter gene
T3 sequence (P48546 22-466): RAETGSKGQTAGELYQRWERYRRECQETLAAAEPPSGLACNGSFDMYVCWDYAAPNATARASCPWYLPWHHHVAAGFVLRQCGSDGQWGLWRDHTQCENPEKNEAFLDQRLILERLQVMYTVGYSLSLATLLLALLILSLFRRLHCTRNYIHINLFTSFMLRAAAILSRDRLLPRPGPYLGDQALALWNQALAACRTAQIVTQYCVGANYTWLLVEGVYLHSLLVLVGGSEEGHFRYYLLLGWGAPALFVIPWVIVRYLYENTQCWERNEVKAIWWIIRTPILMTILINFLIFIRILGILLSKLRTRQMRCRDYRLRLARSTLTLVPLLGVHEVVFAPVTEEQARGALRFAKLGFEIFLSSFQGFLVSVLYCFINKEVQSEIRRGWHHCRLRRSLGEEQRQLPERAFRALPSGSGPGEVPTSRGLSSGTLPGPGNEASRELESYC
Method in brief: as §1

[4] = 0.5% human plasma, read-out: hGLP1R 0.5% hP
[5] = 0.5% human plasma, read-out: hNPY2R 0.5% hP
[6] = 0.5% human plasma, read-out: hGIPR 0.5% hP
[7] = 100% human plasma, read-out: hGIPR 100% hP
[8] = 100% human plasma, read-out: hGLP1R 100% hP
[9] = 100% human plasma, read-out: hNPY2R 100% hP

T1 sequence (P43220 24-463): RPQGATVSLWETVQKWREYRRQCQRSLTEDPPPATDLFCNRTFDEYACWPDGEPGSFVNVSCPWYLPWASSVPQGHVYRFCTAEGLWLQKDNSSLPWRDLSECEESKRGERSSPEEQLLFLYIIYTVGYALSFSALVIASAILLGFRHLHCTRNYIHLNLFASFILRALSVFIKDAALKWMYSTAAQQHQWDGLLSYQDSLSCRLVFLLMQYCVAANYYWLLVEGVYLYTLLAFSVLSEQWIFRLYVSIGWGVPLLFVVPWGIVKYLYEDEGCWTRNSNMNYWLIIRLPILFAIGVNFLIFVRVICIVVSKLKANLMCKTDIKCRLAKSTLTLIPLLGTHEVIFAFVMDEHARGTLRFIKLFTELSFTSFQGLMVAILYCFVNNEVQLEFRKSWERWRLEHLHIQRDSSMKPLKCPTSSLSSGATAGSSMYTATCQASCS

Substance | pEC50 [1, 4] | pEC50 [2, 5] | pEC50 [3, 6] | pEC50 [3, 7] | pEC50 [1, 8] | pEC50 [2, 9]
H-Y[Aib]EGTFTSDYSI[Aib]LEKQAQ[Aib]AFVEWLIK([γGlu-γGlu-γGlu-γGlu-γGlu-γGlu-C20 diacid])GGPSEGASLRHYYNWLTRQRY-NH2 [Compound 305, Y-Aib-E-G-T-F-T-S-D-Y-S-I-Aib-L-E-K-Q-A-Q-Aib-A-F-V-E-W-L-I-K(1,3)-GGPSEGASLRHYYNWLTRQRY-NH2.C20DA-gGlu-gGlu-gGlu-gGlu-gGlu-gGlu(1,2)] | 9.54 | 7.74 | 9.19 | 8.55 | – | –
H-Y[Aib]EGTFTSDYSI[Aib]LEKQAQ[Aib]AFVEWLIK([εLys-γGlu-γGlu-γGlu-γGlu-γGlu-C18 diacid])GGPESGASLRHYYNWLTRQRY-NH2 [Compound 152, Y-Aib-E-G-T-F-T-S-D-Y-S-I-Aib-L-E-K-Q-A-Q-Aib-A-F-V-E-W-L-I-K(1,3)-GGPESGASLRHYYNWLTRQRY-NH2.C18DA-gGlu-gGlu-gGlu-gGlu-gGlu-eLys(1,2)] | 9.89 | 7.90 | 9.40 | 9.02 | 8.37 | –
H-Y[Aib]EGTFTSDYSI[Aib]LEKQAQ[Aib]AFVEWLIK([εLys-γGlu-γGlu-γGlu-γGlu-γGlu-C18 diacid])GGPSEPASLRHYYNWLTRQRY-NH2 [Compound 263, Y-Aib-E-G-T-F-T-S-D-Y-S-I-Aib-L-E-K-Q-A-Q-Aib-A-F-V-E-W-L-I-K(1,3)-GGPSEPASLRHYYNWLTRQRY-NH2.C18DA-gGlu-gGlu-gGlu-gGlu-gGlu-eLys(1,2)] | 9.49 | 7.80 | 9.92 | 8.82 | – | –
H-Y[Aib]EGTFTSDYSI[Aib]LEKQAQ[Aib]AFVEWLIK([εLys-γGlu-γGlu-γGlu-γGlu-γGlu-C20 diacid])GGPEEGASLRHYYNWLTRQRY-NH2 [Compound 230, Y-Aib-E-G-T-F-T-S-D-Y-S-I-Aib-L-E-K-Q-A-Q-Aib-A-F-V-E-W-L-I-K(1,3)-GGPEEGASLRHYYNWLTRQRY-NH2.C20DA-gGlu-gGlu-gGlu-gGlu-gGlu-eLys(1,2)] | 9.54 | 7.81 | 9.55 | 8.84 | – | –
H-Y[Aib]EGTFTSDYSI[Aib]LEKQAQ[Aib]AFVEWLIK([εLys-γGlu-γGlu-γGlu-γGlu-γGlu-γGlu-C20 diacid])GGPSEGASLRHYYNWLTRQ[NMeR]Y-NH2 [Compound 236, Y-Aib-E-G-T-F-T-S-D-Y-S-I-Aib-L-E-K-Q-A-Q-Aib-A-F-V-E-W-L-I-K(1,3)-G-G-P-S-E-G-A-S-L-R-H-Y-Y-N-W-L-T-R-Q-NMeR-Y-NH2.C20DA-gGlu-gGlu-gGlu-gGlu-gGlu-gGlu-eLys(1,2)] | 9.59 | 7.51 | 9.52 | – | – | –
H-Y[Aib]EGTFTSDYSI[Aib]LEKQAQ[Aib]AFVEWLIK([εLys-γGlu-γGlu-γGlu-γGlu-γGlu-γGlu-C20 diacid])GGPSEGASLRHYYNWLTR[β3hQ]RY-NH2 [Compound 277, Y-Aib-E-G-T-F-T-S-D-Y-S-I-Aib-L-E-K-Q-A-Q-Aib-A-F-V-E-W-L-I-K(1,3)-G-G-P-S-E-G-A-S-L-R-H-Y-Y-N-W-L-T-R-bHGln-R-Y-NH2.C20DA-gGlu-gGlu-gGlu-gGlu-gGlu-gGlu-eLys(1,2)] | 9.72 | < 7.00 | 9.96 | 9.17 | – | –
H-Y[Aib]EGTFTSDYSI[Aib]LEKQAQ[Aib]AFVEWLIK([εLys-γGlu-γGlu-γGlu-γGlu-γGlu-γGlu-C20 diacid])GGPSEGQSIRHYYNWLTRQRY-NH2 [Compound 134, Y-Aib-E-G-T-F-T-S-D-Y-S-I-Aib-L-E-K-Q-A-Q-Aib-A-F-V-E-W-L-I-K(1,3)-GGPSEGQSIRHYYNWLTRQRY-NH2.C20DA-gGlu-gGlu-gGlu-gGlu-gGlu-gGlu-eLys(1,2)] | 10.00 | 8.00 | 10.05 | 9.08 | – | 7.40
H-Y[Aib]EGTFTSDYSI[Aib]LEKQAQ[Aib]AFVEWLIK([εLys-γGlu-γGlu-γGlu-γGlu-γGlu-γGlu-C20 diacid])GGPSEGQSLRHYYNWLTRQRY-NH2 [Compound 227, Y-Aib-E-G-T-F-T-S-D-Y-S-I-Aib-L-E-K-Q-A-Q-Aib-A-F-V-E-W-L-I-K(1,3)-GGPSEGQSLRHYYNWLTRQRY-NH2.C20DA-gGlu-gGlu-gGlu-gGlu-gGlu-gGlu-eLys(1,2)] | 9.89 | 7.99 | 10.22 | 8.91 | 8.51 | –
H-Y[Aib]EGTFTSDYSI[Aib]LEKQAQ[Aib]AFVEWLIK([εLys-γGlu-γGlu-γGlu-γGlu-γGlu-γGlu-C20 diacid])GGPSEPASLRHYYNWLTRQRY-NH2 [Compound 233, Y-Aib-E-G-T-F-T-S-D-Y-S-I-Aib-L-E-K-Q-A-Q-Aib-A-F-V-E-W-L-I-K(1,3)-GGPSEPASLRHYYNWLTRQRY-NH2.C20DA-gGlu-gGlu-gGlu-gGlu-gGlu-gGlu-eLys(1,2)] | 9.77 | 7.90 | 10.10 | 9.12 | 8.77 | –
H-Y[Aib]EGTFTSDYSI[Aib]LEKQAQ[Aib]AFVEWLIK([εLys-γGlu-γGlu-γGlu-γGlu-γGlu-γGlu-C20 diacid])GGPSEPQSIRHYYNWLTRQRY-NH2 [Compound 48, Y-Aib-E-G-T-F-T-S-D-Y-S-I-Aib-L-E-K-Q-A-Q-Aib-A-F-V-E-W-L-I-K(1,3)-GGPSEPQSIRHYYNWLTRQRY-NH2.C20DA-gGlu-gGlu-gGlu-gGlu-gGlu-gGlu-eLys(1,2)] | 10.15 | – | 10.15 | 9.17 | – | 7.45
H-Y[Aib]EGTFTSDYSI[Aib]LEKQAQ[Aib]AFVEWLIK([εLys-γGlu-γGlu-γGlu-γGlu-γGlu-γGlu-C20 diacid])GGPSEYESLRHYYNWLTRQRY-NH2 [Compound 93, Y-Aib-E-G-T-F-T-S-D-Y-S-I-Aib-L-E-K-Q-A-Q-Aib-A-F-V-E-W-L-I-K(1,3)-GGPSEYESLRHYYNWLTRQRY-NH2.C20DA-gGlu-gGlu-gGlu-gGlu-gGlu-gGlu-eLys(1,2)] | 9.66 | 7.82 | 9.85 | 8.63 | 8.05 | 7.07
H-Y[Aib]EGTFTSDYSI[Aib]LEKQAQ[Aib]AFVEWLIK([εLys-γGlu-γGlu-γGlu-γGlu-γGlu-γGlu-C20 diacid])GGPSEYVSIRHYYNWLTRQRY-NH2 [Compound 42, Y-Aib-E-G-T-F-T-S-D-Y-S-I-Aib-L-E-K-Q-A-Q-Aib-A-F-V-E-W-L-I-K(1,3)-GGPSEYVSIRHYYNWLTRQRY-NH2.C20DA-gGlu-gGlu-gGlu-gGlu-gGlu-gGlu-eLys(1,2)] | 9.44 | – | 9.82 | – | – | 7.72
H-Y[Aib]EGTFTSDYSI[Aib]LEKQAQ[Aib]AFVEWLIK([εLys-γGlu-γGlu-γGlu-γGlu-γGlu-γGlu-C20 diacid])GGPSEYVSLRHYYNWLTRQRY-NH2 [Compound 217, Y-Aib-E-G-T-F-T-S-D-Y-S-I-Aib-L-E-K-Q-A-Q-Aib-A-F-V-E-W-L-I-K(1,3)-GGPSEYVSLRHYYNWLTRQRY-NH2.C20DA-gGlu-gGlu-gGlu-gGlu-gGlu-gGlu-eLys(1,2)] | – | 7.73 | 9.13 | – | 7.76 | –
H-Y[Aib]EGTFTSDYSI[Aib]LEKQAQ[Aib]AFVEWLIK([εLys-γGlu-γGlu-γGlu-γGlu-γGlu-γGlu-C20 diacid])GGPSSGALLRHYYNWLTRQRY-NH2 [Compound 197, Y-Aib-E-G-T-F-T-S-D-Y-S-I-Aib-L-E-K-Q-A-Q-Aib-A-F-V-E-W-L-I-K(1,3)-GGPSSGALLRHYYNWLTRQRY-NH2.C20DA-gGlu-gGlu-gGlu-gGlu-gGlu-gGlu-eLys(1,2)] | 9.51 | 7.37 | 9.37 | – | – | 6.80
H-Y[Aib]EGTFTSDYSI[Aib]LEKQAQ[Aib]AFVEWLIK([εLys-γGlu-γGlu-γGlu-γGlu-γGlu-γGlu-C20 diacid])GGPSSGASIRHYYNWLTRQRY-NH2 [Compound 132, Y-Aib-E-G-T-F-T-S-D-Y-S-I-Aib-L-E-K-Q-A-Q-Aib-A-F-V-E-W-L-I-K(1,3)-GGPSSGASIRHYYNWLTRQRY-NH2.C20DA-gGlu-gGlu-gGlu-gGlu-gGlu-gGlu-eLys(1,2)] | 9.85 | – | 9.66 | – | – | 7.34
